Like-named read-outs stand apart in the source and are kept apart here.
How the values were obtained:
[1] = target: E3 (His-APC11/APC2, "APC") (Homo sapiens, UniProt Q9NYG5+Q9UJX6); test: Plate-based E3 ligase assay (APC FLAG), auto-ubiquitination; format: biochemical
Description: E3 (His-APC11/APC2—“APC”) auto-ubiquitination was measured as described in U.S. patent application Ser. No. 09/826,312 (Publication No. US-2002-0042083-A1), which is incorporated herein in its entirety. Details of the protocol are described below. Activity in the presence of the compound was determined relative to a parallel control in which only DMSO was added. Values of the IC50 were typically determined using 6 or 8 different concentrations of the compound, although as few as 2 concentrations may be used to approximate the IC50 value.
Nickel-coated 96-well plates (Pierce 15242) were blocked for 1 hour with 100 μl of blocking buffer at room temperature. The plates were washed 4 times with 225 μl of 1×PBS and 80 μl of the reaction buffer were added that contained 100 ng/well of Flag-ubiquitin. To this, 10 μl of the test compound diluted in DMSO were added. After the test compound was added, 10 μl of E1 (human), E2 (Ubch5c), and APC in Protein Buffer was added to obtain a final concentration of 5 ng/well of E1, 20 ng/well: of E2 and 100 ng/well of APC. The plate were shaken for 10 minutes and incubated at room temperature for 1 hour. After incubation, the plates were washed 4 times with 225 μl of 1×PBS and 100 μl/well of Antibody Mix were added to each well. The plates were incubate at room temperature for another hour after which they were washed 4 times with 225 μl of 1×PBS and 100 μl/well of Lumino substrate were added to each well. The luminescence was measured by using a BMG luminescence microplate reader.
APC Plate/gel is Anaphase Promoting Complex. This protein also belongs to E3 RING finger ligase group.

[2] = system: p53 reporter system in p53 wild-type A549 cell line; test: p53-dependent transcription reporter assay, A549RE; format: cell-based; settings: p53 +ve cell type; maximal fold induction over DMSO control
Description: Stable lines of U2OS (osteosarcoma; Wild-type p53 positive), HCT116 (colorectal carcinoma; Wild-type p53 positive) and H1299 (lung non-small cell carcinoma; p53 null) carrying p53-dependent transcriptional regulatory element linked to a Luciferase reporter gene and H1299 carrying a 5′-regulatory region of GADD45 linked to Luciferase were used.
Day 2: The compounds or control drugs were diluted in dimethyl sulfoxide (DMSO) and added to the wells to create 6-points/2-fold serial dilution (20, 10, 5, 2.5, 1.25, 0.625 and 0 μM) for each compound. The DMSO concentration was adjusted to 0.2% in all wells.
Day 3: Twenty to 24 hours after compound addition, cells were twice washed with PBS and lysed with Glo-lysis buffer (100 μl/well, Promega; Cat#E2661). Plates were subjected to gentle agitation on a table-top shaker for 5 minutes at room temperature. Fifty μl of lysate was transferred to an assay plate to test for luciferase activity and mixed with 2× assay buffer (Promega; Cat# E1483). The reaction mixture was left at room temperature for 2 minutes and then luminescence was measure by a luminometer (Victor™, 1420 Multilabel Counter, Wallac).
Data analysis was done on Excel software (Microsoft). Values in Table 4 represent maximal fold induction over negative control (DMSO only) and are the mean of at least duplicate experiments.
A549RE is a p53 wild-type A549 cell line containing p53 reporter system. If the compound acts against MDM2, p53 activity increases.

U2OS cells = test: PAD anti-proliferation assay, U2OS; format: cell-based; settings: Homo sapiens, 48 hours, read-out: PAD/U20S IC50
Description: A549 (ATCC# CCL 185), HeLa (ATCC# CCL 2), HCT116 (ATCC# CCL-247), and H 1299 (ATCC# CRL-5803) cells were maintained in T175 flasks following the ATCC recommended media and handling procedures. Flasks reaching approximately 70% confluency were trypsinized and resuspended in RPMI media (Cell Gro catalog number 10 040 CM) modified to contain 5% FBS, 100 ug/mlPen/Strep (Cell Gro catalog number 30 002 CL), and 0.3 mg/ml L Glutamine (Cell Gro catalog number 25 003 CL). A 20,000 cells/ml solution was made for plating. Cells were plated in black Packard 96 well plates by placing 100 μl per well (2,000 cells per well).
Compounds and additional media were added 24′ hours after cell plating. A compound master plate was created with concentrations 500 times greater than the final concentration added to the cells. All compound testing was done in duplicate using 3 fold dilutions starting with 10 mM. All outside wells (and 4 internal wells) were DMSO controls. Taxol and at least one additional control were run on all plates. Three microliters of the compound master plate were added to deep well blocks containing 750 μl of RPMI media. One hundred microliters were transferred from the compound/media deep well blocks to the plated cells resulting in a 500 fold dilution of the compounds. Cells were grown at 37° C., 5% CO2 for 48 hours.
Cells to be analyzed by photography were fixed and stained. One hundred microliters of media were removed and 100 μl of 2% paraformaldehyde was added to each well. Plates were left on the benchtop for 45 minutes. A staining solution containing 1.55 μl of 1 mg/ml DAPI added to 18.75 ml PBS was warmed for 15 minutes at 37° C. The cells were aspirated prior to washing with 100 μl of PBS. Seventy microliters of PBS were aspirated and 170 μl of the DAPI solution were added to each well of fixed cells. Plates were left at room temperature for one hour then aspirated and washed twice with 100 μl of PBS. The stained cells were left at 4° C. for a minimum of 16 hours before photographic analysis with Array Scan II (Cellomics). Analysis of the photographic images to determine numbers of live cells (proliferation), apoptotic cells and dead cells, were according to the methods described in U.S. Provisional Patent Application Ser. No. 60/406,714, which incorporated herein in its entirety.
Some cell plates were treated with Promega Cell titer Aqueous 1 kit (Promega—VWR catalog number G3580). In this case, 48 hours after the test compound were added, 100 μl of media were removed and 20 μl of cell titer reagent were added to all wells. Plates were incubated at 37° C. for 45 minutes prior to absorbance reads on the Wallac plate reader at 490 nm for 0.1 sec/well. Similar experiments can be carried out using cell lines U2OS and DLD-1.

[3] = Table 3, read-out: APC Plate IC50

E3 (His-APC11/APC2, "APC"), sequence (Q9NYG5 whole entry): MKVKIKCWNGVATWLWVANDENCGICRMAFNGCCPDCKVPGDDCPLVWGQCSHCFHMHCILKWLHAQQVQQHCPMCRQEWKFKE
E3 (His-APC11/APC2, "APC"), sequence (Q9UJX6 whole entry): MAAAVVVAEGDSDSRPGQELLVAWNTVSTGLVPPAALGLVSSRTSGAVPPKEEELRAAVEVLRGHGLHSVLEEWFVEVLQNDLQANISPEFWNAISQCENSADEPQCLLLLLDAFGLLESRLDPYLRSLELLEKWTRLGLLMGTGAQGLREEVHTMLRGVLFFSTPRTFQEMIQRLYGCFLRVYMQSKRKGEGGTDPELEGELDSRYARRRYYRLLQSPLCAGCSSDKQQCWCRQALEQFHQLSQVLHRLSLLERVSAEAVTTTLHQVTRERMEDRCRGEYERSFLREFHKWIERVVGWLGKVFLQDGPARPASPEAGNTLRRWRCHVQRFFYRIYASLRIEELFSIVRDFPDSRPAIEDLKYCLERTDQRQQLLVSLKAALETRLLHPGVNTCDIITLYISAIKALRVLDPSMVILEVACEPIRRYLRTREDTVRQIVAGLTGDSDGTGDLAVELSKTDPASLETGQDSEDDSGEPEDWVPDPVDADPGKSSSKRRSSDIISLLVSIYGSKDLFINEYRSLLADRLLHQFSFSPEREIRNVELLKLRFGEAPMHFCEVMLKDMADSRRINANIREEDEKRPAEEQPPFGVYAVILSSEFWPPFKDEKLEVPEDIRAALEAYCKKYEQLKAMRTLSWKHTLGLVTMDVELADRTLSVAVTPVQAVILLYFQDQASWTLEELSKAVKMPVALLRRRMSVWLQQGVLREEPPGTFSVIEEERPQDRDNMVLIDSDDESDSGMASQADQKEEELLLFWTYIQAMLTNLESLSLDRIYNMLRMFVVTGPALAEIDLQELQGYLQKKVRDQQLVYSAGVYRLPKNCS

| Structure (SMILES) | IC50 ([1]; Table 2, read-out: APC IC50) | IC50 [1, 3] | Fold Induction of p53 activity, A549RE [2] | IC50 (U2OS cells) |
| --- | --- | --- | --- | --- |
| COc1cccc(-c2csc(N(Cc3ccc(C(=O)N4CCNCC4)cc3)Cc3cccc(OC(F)(F)F)c3)n2)c1 [compound 351] | 1 to 20 µM | 1 to 20 µM | a (a means 2 or less) | 1 to 20 µM |
| COc1cccc(-c2csc(N(CCOc3ccccc3)Cc3ccc(C(=O)N4CCNCC4)cc3)n2)c1 [compound 352] | 1 to 20 µM | ≥ 20 µM | a (a means 2 or less) | 1 to 20 µM |
| COc1cccc(CN(Cc2ccc(C(=O)N3CCNCC3)cc2)c2nc(-c3ccc(Br)cc3)cs2)c1OC [compound 353] | 1 to 20 µM | 1 to 20 µM | a (a means 2 or less) | 1 to 20 µM |
| O=C(c1ccc(CN(Cc2cccc(OC(F)(F)F)c2)c2nc(-c3ccc4ccccc4c3)cs2)cc1)N1CCNCC1 [compound 282, 4-(2-naphthyl)-N-[4-(piperazin-1-ylcarbonyl)benzyl]-N-[3-(trifluoromethoxy)benzyl]-1,3-thiazol-2-amine] | 1 to 20 µM | 1 to 20 µM | a (a means 2 or less) | 1 to 20 µM |
| O=C(c1ccc(CN(CCOc2ccccc2)c2nc(-c3ccc(Cl)c(Cl)c3)cs2)cc1)N1CCNCC1 [compound 360] | 1 to 20 µM | 1 to 20 µM | a (a means 2 or less) | 1 to 20 µM |
| O=C(c1ccc(CN(Cc2cccc(OC(F)(F)F)c2)c2nc(-c3ccccc3)cs2)cc1)N1CCNCC1 [compound 275] | 1 to 20 µM | 1 to 20 µM | a (a means 2 or less) | 1 to 20 µM |

Reference: patent US20060160869A1, “Ubiquitin ligase inhibitors” (Rigel Pharmaceuticals, Inc., priority 2005, published 2006)
